Test systems include EKVX NSCLC; CAKI-1 renal; NCI-H460 lung; OVCAR-3 ovarian; IGROV1 ovarian; LOX IMVI melanoma; TK-10 renal; OVCAR-5 ovarian; HS 578T breast; MDA-MB-435.
What all share (assay): DTP human tumour cell line panel, 48 h

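The compound was tested at five concentrations on cells cultured in 96-well plates, with a 48-hour exposure period. Here, GI50 denotes the concentration required for 50% inhibition of growth. At the TGI there is no net growth.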

Regarding `CCOC(=O)C1C(=S)NC(=O)C1C#N` (stereo not drawn), the concentration for total growth inhibition (TGI) with EKVX NSCLC, with CAKI-1 renal, in the experiment on NCI-H460 lung, in the experiment with OVCAR-3 ovarian, in the experiment on IGROV1 ovarian and in the experiment on LOX IMVI melanoma was above 100 µM throughout. The TGI in the experiment on TK-10 renal and in the experiment with OVCAR-5 ovarian was above 100 µM in each case.
Regarding `Cc1c(/C=N/N=C/c2[nH]c(C(=O)OC(C)(C)C)c(C)c2C)[nH]c(C(=O)OC(C)(C)C)c1C`, the TGI in the experiment with EKVX NSCLC, with CAKI-1 renal, in the experiment on NCI-H460 lung, in the experiment on OVCAR-3 ovarian, in the experiment with IGROV1 ovarian and in the experiment on LOX IMVI melanoma was above 100 µM throughout. Also, the TGI in the experiment on TK-10 renal and with OVCAR-5 ovarian was above 100 µM each time.
In the case of `O=C1OC(Cc2ccccc2)(N2CCCC2=O)C1c1ccccc1` (stereo not drawn), the TGI in the experiment on EKVX NSCLC, in the experiment with CAKI-1 renal, with NCI-H460 lung, in the experiment on OVCAR-3 ovarian, in the experiment on TK-10 renal and with OVCAR-5 ovarian was above 100 µM each time.
Turning to `COC(=O)C1(C)CCc2c(OC)ccc(OC)c2C1=O` (stereo not drawn), the TGI in the experiment with EKVX NSCLC, in the experiment on OVCAR-3 ovarian, in the experiment on IGROV1 ovarian, with LOX IMVI melanoma, in the experiment on TK-10 renal and with OVCAR-5 ovarian was above 100 µM throughout.
As for `CCCCCCCCCCCCCCCCCC[n+]1ccc2c(C)c3c(c(C)c2c1)c1cc(O)ccc1n3CC`, the GI50 was 2.15 µM in the experiment with EKVX NSCLC; 11.5 µM in the experiment with CAKI-1 renal; 1.72 µM in the experiment with NCI-H460 lung; 1.88 µM in the experiment on OVCAR-3 ovarian; 2.73 µM with LOX IMVI melanoma; 2.23 µM with HS 578T breast. The GI50 is 1.49 µM in the experiment on TK-10 renal and 4.38 µM with OVCAR-5 ovarian. The TGI came out at 9.93 µM with EKVX NSCLC; 28.7 µM with CAKI-1 renal; 4.18 µM in the experiment with NCI-H460 lung; 4.68 µM in the experiment on OVCAR-3 ovarian; 10.3 µM with LOX IMVI melanoma; 7.79 µM in the experiment with HS 578T breast. Also, the TGI was determined as 4.13 µM in the experiment on TK-10 renal and 24.8 µM in the experiment on OVCAR-5 ovarian.
On to `Cc1cccc(C)c1NC(=O)/C(=N/NC(N)=S)C(C)C(=O)c1ccc(Cl)cc1` (stereo not drawn), for which the TGI in the experiment with EKVX NSCLC, with CAKI-1 renal, in the experiment with NCI-H460 lung, with OVCAR-3 ovarian, in the experiment with IGROV1 ovarian and in the experiment on TK-10 renal was above 100 µM in each case. The molecule further showed a TGI in the experiment with OVCAR-5 ovarian above 100 µM.
For `CC(=O)Nc1ccc(SC#N)c2c(NC(C)=O)cccc12`, the TGI in the experiment on EKVX NSCLC, in the experiment with CAKI-1 renal, with NCI-H460 lung, in the experiment on OVCAR-3 ovarian, in the experiment on IGROV1 ovarian and in the experiment on LOX IMVI melanoma was above 100 µM in each case. Besides, the TGI with TK-10 renal and in the experiment with OVCAR-5 ovarian was above 100 µM each time.
Take `COC(=O)C1CC2CC(=NNC(N)=O)CC2C1` (stereo not drawn): the TGI in the experiment with EKVX NSCLC, in the experiment on CAKI-1 renal, with NCI-H460 lung, with OVCAR-3 ovarian, with IGROV1 ovarian and in the experiment with LOX IMVI melanoma was above 100 µM in each case. In addition, the TGI with TK-10 renal and with OVCAR-5 ovarian was above 100 µM each time.
For the molecule `COc1cc2c(cc1OCCCn1c(-c3ccccn3)nc3ccccc31)N=C[C@@H]1CCCN1C2=O`, the GI50 in the experiment with MDA-MB-435 was 1.42 µM; in the experiment with EKVX NSCLC, 5 µM; with CAKI-1 renal, 2.16 µM; with NCI-H460 lung, 1.88 µM; in the experiment with OVCAR-3 ovarian, 2.18 µM; with IGROV1 ovarian, 1.96 µM. In addition, the figures for the GI50 in the experiment on LOX IMVI melanoma, in the experiment with TK-10 renal and in the experiment on OVCAR-5 ovarian were 1.71 µM, 3.32 µM and 3.41 µM, respectively. Also, the TGI turned out to be 2.91 µM in the experiment with MDA-MB-435; 40.2 µM in the experiment on EKVX NSCLC; 5.6 µM in the experiment with CAKI-1 renal; 4.34 µM in the experiment on NCI-H460 lung; 5.11 µM in the experiment on OVCAR-3 ovarian; 4.89 µM in the experiment on IGROV1 ovarian. In addition, the TGI in the experiment with LOX IMVI melanoma is 6.16 µM; with TK-10 renal, 10.9 µM; in the experiment on OVCAR-5 ovarian, 9.34 µM.
For the molecule `O=C(NC1CCCCC1)NS(=O)(=O)c1ccc2c(c1)CCC2`, the TGI in the experiment on EKVX NSCLC, in the experiment on OVCAR-3 ovarian, in the experiment with IGROV1 ovarian, in the experiment on LOX IMVI melanoma, in the experiment on TK-10 renal and with OVCAR-5 ovarian was above 100 µM in each case.
On to `CCN(CC)CC1c2ccccc2C(CNc2ccccc2)N1C` (stereo not drawn), for which the TGI in the experiment with EKVX NSCLC, in the experiment with CAKI-1 renal, in the experiment on NCI-H460 lung, with OVCAR-3 ovarian, in the experiment with IGROV1 ovarian and in the experiment on LOX IMVI melanoma was above 100 µM throughout. Further, the TGI in the experiment with TK-10 renal and with OVCAR-5 ovarian was above 100 µM in each case.
Consider `O=C1NC(=O)C2C(=O)NC(=O)C1C2c1c(Cl)cccc1Cl` (stereo not drawn), for which the TGI in the experiment with EKVX NSCLC was above 100 µM; in the experiment on CAKI-1 renal it was above 100 µM; in the experiment on NCI-H460 lung, above 58.2 µM; in the experiment with OVCAR-3 ovarian it was above 100 µM; with IGROV1 ovarian, above 100 µM; with LOX IMVI melanoma, above 57.4 µM. Further, the TGI in the experiment with TK-10 renal and with OVCAR-5 ovarian was above 100 µM each time.
Turning to `COc1ccc(C=O)c([N+](=O)[O-])c1`, the TGI with EKVX NSCLC, with NCI-H460 lung, in the experiment on OVCAR-3 ovarian, in the experiment with IGROV1 ovarian, in the experiment on LOX IMVI melanoma and in the experiment on TK-10 renal was above 100 µM throughout.
Consider `CCC(=O)C12OC3OC(C)(C)OC3C1OC(C)(C)O2` (stereo not drawn), for which the TGI with EKVX NSCLC, in the experiment with CAKI-1 renal, in the experiment with NCI-H460 lung, in the experiment on OVCAR-3 ovarian, in the experiment with IGROV1 ovarian and with TK-10 renal was above 100 µM throughout. This molecule gave a TGI with OVCAR-5 ovarian above 100 µM.
As to `CC#CCC1CCC(OCC)=CC1=O` (stereo not drawn), the TGI with EKVX NSCLC, in the experiment with CAKI-1 renal, with NCI-H460 lung, in the experiment with OVCAR-3 ovarian, in the experiment on IGROV1 ovarian and in the experiment with LOX IMVI melanoma was above 100 µM each time. The TGI in the experiment on TK-10 renal and in the experiment on OVCAR-5 ovarian was above 100 µM each time.

The values above are taken from PubChem BioAssay (NCI).
